Assays:
PCSK9 [1] = target: T1, PCSK9 (Homo sapiens, UniProt Q8NBP7); assay: PCSK9 Alexa FRET Ultra TR-FRET assay (displacement of AlexaFluor647 tagged cyclic peptide); type: binding; details: 0.5 nM biotinylated PCSK9, 960 nM AF cyclic peptide, Ki calculated from IC50 and KD of AF peptide
T1 construct: Biotinylated PCSK9 was obtained commercially; purchased
Protocol: (§1) The following is a description of the assays used to determine activity of compounds of the invention, and any comparator compounds reported, toward PCSK9 antagonism. Biotinylated PCSK9 was obtained commercially.
A solution containing 1 nM biotinylated PCSK9+2.5 nM Lance Streptavidin Europium (Strep-Eu) is made in 50 mM HEPES pH 7.4, 0.15 M NaCl, 5 mM CaCl2, 0.01% BSA, and 0.01% Surfactant P20. A separate solution containing 1920 nM of the AlexaFluor tagged cyclic peptide is made in the same buffer system. An Echo is used to transfer 0.015 ul of compound plus 0.735 ul of DMSO to each well of an assay plate followed by the addition of 15 ul of PCSK9+Stept-Eu and 15 ul of AF peptide. The final assay volume is 30.750 ul containing 0.5 nM PCSK9, 1.25 nM Strep-Eu, and 960 nM AF cyclic peptide. The reaction is incubated at room temperature for at least two hours prior to fluorescence measurements using an Envision Multilabel Reader. IC50 values are determined by fitting data to a sigmoidal dose-response curve using nonlinear regression. Ki is then calculated from the IC50 and the KD of AF cyclic peptide. Counts (B-counts) of the europium-labeled PCSK9 are followed to observe if compounds are adversely affecting PCSK9. A fall off of the B-counts is likely indicates a false positive of inhibition. Data from this procedure is reported as “Ki Ultra=‘numerical value’ (data reported is nanomolar)”

PCSK9 [2] = target: T1, PCSK9; assay: PCSK9 Alexa FRET Plus TR-FRET assay (displacement of AlexaFluor647 tagged cyclic peptide Reagent B); type: binding; details: 0.5 nM biotinylated PCSK9, 960 nM AF cyclic peptide Reagent B, Ki calculated from IC50 and KD of AF peptide
Protocol: as §1
A solution containing 1 nM biotinylated PCSK9+2.5 nM Lance Streptavidin Europium (Strep-Eu) is made in 50 mM HEPES pH 7.4, 0.15 M NaCl, 5 mM CaCl2, 0.01% BSA, and 0.01% Surfactant P20. A separate solution containing 1920 nM of the AlexaFluor tagged cyclic peptide is made in the same buffer system. An Echo is used to transfer 0.075 ul of compound plus 0.675 ul of DMSO to each well of an assay plate followed by the addition of 15 ul of PCSK9+Stept-Eu and 15 ul of AF peptide. The final assay volume is 30.750 ul containing 0.5 nM PCSK9, 1.25 nM Strep-Eu, and 960 nM AF cyclic peptide. The reaction is incubated at room temperature for at least two hours prior to fluorescence measurements using an Envision Multilabel Reader. IC50 values are determined by fitting data to a sigmoidal dose-response curve using nonlinear regression. Ki is then calculated from the IC50 and the KD of AF cyclic peptide. Counts (B-counts) of the europium-labeled PCSK9 are followed to observe if compounds are adversely affecting PCSK9. A fall off of the B-counts is likely indicates a false positive of inhibition. Data from this procedure is reported as “P=‘numerical value’ (nanomolar)”
Activity data obtained by one or both of the above-described procedures is reported for selected example compounds of the invention in the following format: Example No.: A (standard TR Fret)=‘numerical value’; P (Alexa Fret plus standard TR Fret)=‘numerical value’/, note that all values reported are nanomolar.

T1 sequence (Q8NBP7 153-692): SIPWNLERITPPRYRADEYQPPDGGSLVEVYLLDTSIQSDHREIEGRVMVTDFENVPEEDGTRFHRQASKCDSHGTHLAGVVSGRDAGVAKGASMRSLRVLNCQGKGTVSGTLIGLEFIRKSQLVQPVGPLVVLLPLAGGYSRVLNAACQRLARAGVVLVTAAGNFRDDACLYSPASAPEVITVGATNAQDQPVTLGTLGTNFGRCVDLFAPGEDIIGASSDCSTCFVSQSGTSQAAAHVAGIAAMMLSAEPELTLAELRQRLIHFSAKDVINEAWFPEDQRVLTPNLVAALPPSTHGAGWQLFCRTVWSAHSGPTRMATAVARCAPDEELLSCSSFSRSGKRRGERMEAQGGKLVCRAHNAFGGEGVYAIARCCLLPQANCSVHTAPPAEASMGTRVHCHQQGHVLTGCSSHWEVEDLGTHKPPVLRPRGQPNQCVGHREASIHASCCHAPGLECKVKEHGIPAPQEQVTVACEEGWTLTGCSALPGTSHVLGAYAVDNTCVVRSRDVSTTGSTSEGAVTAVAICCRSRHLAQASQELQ

| Structure (SMILES) | Ki (PCSK9 [1]; read-out: Ki Ultra) [pM] | Ki (PCSK9 [2]; read-out: Ki Plus) [pM] | Ki (PCSK9 [1]; Ki Ultra) [pM] | Ki (PCSK9 [2]; Ki Plus) [pM] |
| --- | --- | --- | --- | --- |
| COc1ccc(C[C@@H]2NC(=O)[C@H]([C@@H](C)O)NC(=O)[C@@H]3[C@@H]4CCN3C(=O)[C@@H]3Cc5cn(c6ccc(F)cc56)CCCCCCN(Cc5ccc(cc5)CCNC(=O)[C@]5(C)CCCN5C2=O)C(=O)CCCC(=O)N[C@H](CNC(=O)CCOCCOCC[N+](C)(C)C)C(=O)N[C@@H](Cc2cccc(c2)CNC(=O)CO4)C(=O)N3)cc1 [Ex-18] | – | – | 118 | 33.6 |
| COc1ccc(C[C@@H]2NC(=O)[C@H]([C@@H](C)O)NC(=O)[C@@H]3[C@@H]4CCN3C(=O)[C@@H]3Cc5cn(c6ccc(F)cc56)CCCCCCN(Cc5ccc(cc5)CCNC(=O)[C@]5(C)CCCN5C2=O)C(=O)CCC(=O)N[C@H]2CN(C(=O)CCOCCOCC[N+](C)(C)C)CCCCC(=O)NC[C@@H](NC2=O)C(=O)N[C@@H](Cc2cccc(c2)CNC(=O)CO4)C(=O)N3)cc1 [Ex-19] | 12 | 16.6 | – | – |
| COc1ccc(C[C@@H]2NC(=O)[C@H]([C@@H](C)O)NC(=O)[C@@H]3[C@@H]4CCN3C(=O)[C@@H]3Cc5cn(c6ccc(F)cc56)CCCCCCN(Cc5ccc(cc5)CCNC(=O)[C@]5(C)CCCN5C2=O)C(=O)CCCCCC(=O)N[C@H](CNC(=O)CCOCCOCC[N+](C)(C)C)C(=O)N[C@@H](Cc2cccc(c2)CNC(=O)CO4)C(=O)N3)cc1 [Ex-21] | – | – | 1.26 | 5.69 |
| COc1ccc(C[C@@H]2NC(=O)[C@H]([C@@H](C)O)NC(=O)[C@@H]3[C@@H]4CCN3C(=O)[C@@H]3Cc5cn(c6ccc(F)cc56)CCCCCCN(Cc5ccc(cc5)CCNC(=O)[C@]5(C)CCCN5C2=O)C(=O)CCC(=O)N[C@@H](C)C(=O)N[C@H](CNC(=O)CCCCC[N+](C)(C)C)C(=O)N[C@@H](Cc2cccc(c2)CNC(=O)CO4)C(=O)N3)cc1 [Ex-25] | – | 11.3 | 4.63 | – |

The next lines start with results.

| Ki (PCSK9 [1]; read-out: Ki Ultra) [pM] | Ki (PCSK9 [2]; read-out: Ki Plus) [pM] | Structure (SMILES) | Ki (PCSK9 [1]; Ki Ultra) [pM] | Ki (PCSK9 [2]; Ki Plus) [pM] |
| --- | --- | --- | --- | --- |
| 2.8 | ≤ 5.58 | COc1ccc(C[C@@H]2NC(=O)[C@H]([C@@H](C)O)NC(=O)[C@@H]3[C@@H]4CCN3C(=O)[C@@H]3Cc5cn(c6ccc(F)cc56)CCCCCN(Cc5ccc(cc5)CCNC(=O)[C@]5(C)CCCN5C2=O)C(=O)CCC(=O)N[C@@H](C)C(=O)N[C@H](CNC(=O)CCOCCOCC[N+](C)(C)C)C(=O)N[C@@H](Cc2cccc(c2)CNC(=O)CO4)C(=O)N3)cc1 [Ex-17] | – | – |
| 17.1 | 13 | COc1ccc(C[C@@H]2NC(=O)[C@H]([C@@H](C)O)NC(=O)[C@@H]3[C@@H]4CCN3C(=O)[C@@H]3Cc5cn(c6ccc(F)cc56)CCCCCCN(Cc5ccc(cc5)CCNC(=O)[C@]5(C)CCCN5C2=O)C(=O)CCCCC(=O)N[C@H](CNC(=O)CCOCCOCC[N+](C)(C)C)C(=O)N[C@@H](Cc2cccc(c2)CNC(=O)CO4)C(=O)N3)cc1 [Ex-20] | – | – |
| 15.2 | 9.26 | COc1ccc(C[C@@H]2NC(=O)[C@H]([C@@H](C)O)NC(=O)[C@@H]3[C@@H]4CCN3C(=O)[C@@H]3Cc5cn(c6ccc(F)cc56)CCCCCCN(Cc5ccc(cc5)CCNC(=O)[C@]5(C)CCCN5C2=O)C(=O)CCC(=O)N[C@@H](CNC(=O)CCOCCOCC[N+](C)(C)C)C(=O)N[C@H](C)C(=O)N[C@@H](Cc2cccc(c2)CNC(=O)CO4)C(=O)N3)cc1 [Ex-22] | – | – |
| 2.39 | 9.38 | COc1ccc(C[C@@H]2NC(=O)[C@H]([C@@H](C)O)NC(=O)[C@@H]3[C@@H]4CCN3C(=O)[C@@H]3Cc5cn(c6ccc(F)cc56)CCCCCCN(Cc5ccc(cc5)CCNC(=O)[C@]5(C)CCCN5C2=O)C(=O)CCC(=O)N[C@@H](C)C(=O)N[C@H](CNC(=O)CCC(=O)NC2OC(CO)C(O)C(O)C2O)C(=O)N[C@@H](Cc2cccc(c2)CNC(=O)CO4)C(=O)N3)cc1 (stereo partly drawn) [Ex-23] | – | – |
| 2.75 | ≤ 5.58 | COc1ccc(C[C@@H]2NC(=O)[C@H]([C@@H](C)O)NC(=O)[C@@H]3C4CCN3C(=O)[C@@H]3Cc5cn(c6ccc(F)cc56)CCCCN(Cc5ccc(cc5)CCNC(=O)[C@]5(C)CCCN5C2=O)C(=O)CCCCCC(=O)N[C@H](CNC(=O)CCC(=O)NC2OC(CO)C(O)C(O)C2O)C(=O)N[C@@H](Cc2cccc(c2)CNC(=O)CO4)C(=O)N3)cc1 (stereo partly drawn) [Ex-26] | – | – |
